Results from patent publication US20100311714A1, “1H-IMIDAZO[4,5-c]QUINOLINONE COMPOUNDS” (priority 2009, published 2010).

Each molecule was assayed on PKB Ser473 phosphorylation in Rat1-myr-HA-p110 alpha cells (assay: Reverse protein array, PKB Ser473 phosphorylation in Rat1-myr-HA-p110 alpha cells). Conditions: Rattus norvegicus, 0.5 h, 30 minutes compound incubation, read-out: p-PKB/IC50_alpha.
Assay type: cell-based

IC50 [nM]	SMILES
< 4.57	Cc1nc(N2CCC(O)C2)ccc1-n1c(=O)n(C)c2cnc3ccc(-c4cnc(N)c(C(F)(F)F)c4)cc3c21 (stereo not shown) [Example 27.3, 8-(6-Amino-5-trifluoromethyl-pyridin-3-yl)-1-[6-(3-hydroxy-pyrrolidin-1-yl)-2-methyl-pyridin-3-yl]-3-methyl-1,3-dihydro-imidazo[4,5-c]quinolin-2-one]
< 4.57	CCNc1cc(-c2ccc3ncc4c(c3c2)n(-c2ccc(N(C)CCO)nc2C)c(=O)n4C)cnc1CO [Example 26.3, 8-(5-Ethylamino-6-hydroxymethyl-pyridin-3-yl)-1-{6-[(2-hydroxy-ethyl)-methyl-amino]-2-methyl-pyridin-3-yl}-3-methyl-1,3-dihydro-imidazo[4,5-c]quinolin-2-one]
34.4	Cc1nc(F)ccc1-n1c(=O)n(C)c2cnc3ccc(-c4cncc(N5CCC5)c4)cc3c21 [Example 7.6, 8-(5-Azetidin-1-yl-pyridin-3-yl)-1-(6-fluoro-2-methyl-pyridin-3-yl)-3-methyl-1,3-dihydro-imidazo[4,5-c]quinolin-2-one]
14.6	CNC(=O)c1ccc(-c2ccc3ncc4c(c3c2)n(-c2cccnc2C)c(=O)n4C)cc1 [Example 2.4, N-Methyl-4-[3-methyl-1-(2-methyl-pyridin-3-yl)-2-oxo-2,3-dihydro-1H-imidazo[4,5-c]quinolin-8-yl]-benzamide]
123	COc1cc(-c2ccc3ncc4c(c3c2)n(-c2ccc(F)nc2C)c(=O)n4C)cnc1CO [Example 7.10, 1-(6-Fluoro-2-methyl-pyridin-3-yl)-8-(6-hydroxymethyl-5-methoxy-pyridin-3-yl)-3-methyl-1,3-dihydro-imidazo[4,5-c]quinolin-2-one]
< 4.57	CCOc1ccc(-c2ccc3ncc4c(c3c2)n(-c2ccc(N3CCC(O)C3)nc2C)c(=O)n4C)cn1 (stereo not shown) [Example 27.4, 8-(6-Ethoxy-pyridin-3-yl)-1-[6-(3-hydroxy-pyrrolidin-1-yl)-2-methyl-pyridin-3-yl]-3-methyl-1,3-dihydro-imidazo[4,5-c]quinolin-2-one]
335	Cc1nc(N2CC(O)C2)ccc1-n1c(=O)n(C)c2cnc3ccc(-c4cncc(C(C)(C)O)c4)cc3c21 [Example 29.1, 1-[6-(3-Hydroxy-azetidin-1-yl)-2-methyl-pyridin-3-yl]-8-[5-(1-hydroxy-1-methyl-ethyl)-pyridin-3-yl]-3-methyl-1,3-dihydro-imidazo[4,5-c]quinolin-2-one]
6.84	Cc1ncccc1-n1c(=O)n(C)c2cnc3ccc(-c4cnc5[nH]ccc5c4)cc3c21 [Example 2.8, 3-Methyl-1-(2-methyl-pyridin-3-yl)-8-(1H-pyrrolo[2,3-b]pyridin-5-yl)-1,3-dihydro-imidazo[4,5-c]quinolin-2-one]
208	COc1ccc(-n2c(=O)n(C)c3cnc4ccc(-c5cnc(C(OC)OC)c(OC)c5)cc4c32)c(OC)n1 [Example 8.13, 8-(6-Dimethoxymethyl-5-methoxy-pyridin-3-yl)-1-(2,6-dimethoxy-pyridin-3-yl)-3-methyl-1,3-dihydro-imidazo[4,5-c]quinolin-2-one]
96.1	COCc1ncc(-c2ccc3ncc4c(c3c2)n(-c2ccc(F)nc2C)c(=O)n4C)cc1OC [Example 7.7, 1-(6-Fluoro-2-methyl-pyridin-3-yl)-8-(5-methoxy-6-methoxymethyl-pyridin-3-yl)-3-methyl-1,3-dihydro-imidazo[4,5-c]quinolin-2-one]
61.7	COc1cc(-c2ccc3ncc4c(c3c2)n(-c2ccc(N3CC[C@H](O)C3)nc2C)c(=O)n4C)cnc1CO [Example 32.7, 8-(6-Hydroxymethyl-5-methoxy-pyridin-3-yl)-1-[6-((S)-3-hydroxy-pyrrolidin-1-yl)-2-methyl-pyridin-3-yl]-3-methyl-1,3-dihydro-imidazo[4,5-c]quinolin-2-one]
< 4.57	COc1ccc(-n2c(=O)n(C)c3cnc4ccc(-c5cncc(N6CCC6)c5)cc4c32)c(OC)n1 [Example 8.11, 8-(5-Azetidin-1-yl-pyridin-3-yl)-1-(2,6-dimethoxy-pyridin-3-yl)-3-methyl-1,3-dihydro-imidazo[4,5-c]quinolin-2-one]
53.6	COc1cc(-c2ccc3ncc4c(c3c2)n(-c2ccc(N)nc2C)c(=O)n4C)cnc1CO [Example 30.1, 1-(6-Amino-2-methyl-pyridin-3-yl)-8-(6-hydroxymethyl-5-methoxy-pyridin-3-yl)-3-methyl-1,3-dihydro-imidazo[4,5-c]quinolin-2-one]
52.2	COCc1ncc(-c2ccc3ncc4c(c3c2)n(-c2cccnc2C)c(=O)n4C)cc1OC [Example 2.30, 8-(5-Methoxy-6-methoxymethyl-pyridin-3-yl)-3-methyl-1-(2-methyl-pyridin-3-yl)-1,3-dihydro-imidazo[4,5-c]quinolin-2-one]
13	CNc1ncc(-c2ccc3ncc4c(c3c2)n(-c2ccc(N3CC[C@@H](O)C3)nc2C)c(=O)n4C)cn1 [Example 34.1, 1-[6-((R)-3-Hydroxy-pyrrolidin-1-yl)-2-methyl-pyridin-3-yl]-3-methyl-8-(2-methylamino-pyrimidin-5-yl)-1,3-dihydro-imidazo[4,5-c]quinolin-2-one]
35	COc1ccc(-n2c(=O)n(C)c3cnc4ccc(-c5cnc(CO)c(OC)c5)cc4c32)c(OC)n1 [Example 8.14, 1-(2,6-Dimethoxy-pyridin-3-yl)-8-(6-hydroxymethyl-5-methoxy-pyridin-3-yl)-3-methyl-1,3-dihydro-imidazo[4,5-c]quinolin-2-one]
13.7	Cn1c(=O)n(-c2cccnc2F)c2c3cc(-c4cnc5[nH]ccc5c4)ccc3ncc21 [Example 6.3, 1-(2-Fluoro-pyridin-3-yl)-3-methyl-8-(1H-pyrrolo[2,3-b]pyridin-5-yl)-1,3-dihydro-imidazo[4,5-c]quinolin-2-one]
22.3	COc1cc(-c2ccc3ncc4c(c3c2)n(-c2ccc(N3CC(F)(F)C3)nc2C)c(=O)n4C)cnc1CO [Example 24.4, 1-[6-(3,3-Difluoro-azetidin-1-yl)-2-methyl-pyridin-3-yl]-8-(6-hydroxymethyl-5-methoxy-pyridin-3-yl)-3-methyl-1,3-dihydro-imidazo[4,5-c]quinolin-2-one]
44.5	COc1cc(-c2ccc3ncc4c(c3c2)n(-c2ccc(N3CCC(OC)C3)nc2C)c(=O)n4C)cnc1CO (stereo not shown) [Example 28.3, 8-(6-Hydroxymethyl-5-methoxy-pyridin-3-yl)-1-[6-(3-methoxy-pyrrolidin-1-yl)-2-methyl-pyridin-3-yl]-3-methyl-1,3-dihydro-imidazo[4,5-c]quinolin-2-one]
27.5	COc1cc(-c2ccc3ncc4c(c3c2)n(-c2ccc(N3CCCC3)nc2C)c(=O)n4C)cnc1CO [Example 25.4, 8-(6-Hydroxymethyl-5-methoxy-pyridin-3-yl)-3-methyl-1-(2-methyl-6-pyrrolidin-1-yl-pyridin-3-yl)-1,3-dihydro-imidazo[4,5-c]quinolin-2-one]
8	CNc1ncc(-c2ccc3ncc4c(c3c2)n(-c2ccc(N3CC[C@H](O)C3)nc2C)c(=O)n4C)cc1Cl [Example 32.4, 8-(5-Chloro-6-methylamino-pyridin-3-yl)-1-[6-((S)-3-hydroxy-pyrrolidin-1-yl)-2-methyl-pyridin-3-yl]-3-methyl-1,3-dihydro-imidazo[4,5-c]quinolin-2-one]
4.6	CCNc1cc(-c2ccc3ncc4c(c3c2)n(-c2ccc(N3CC(F)(F)C(F)(F)C3)nc2C)c(=O)n4C)cnc1CO [Example 35.2, 8-(5-Ethylamino-6-hydroxymethyl-pyridin-3-yl)-3-methyl-1-[2-methyl-6-(3,3,4,4-tetrafluoro-pyrrolidin-1-yl)-pyridin-3-yl]-1,3-dihydro-imidazo[4,5-c]quinolin-2-one]
160	Cc1nc(N2CCC(O)C2)ccc1-n1c(=O)n(C)c2cnc3ccc(-c4cncc(C(C)(C)O)c4)cc3c21 (stereo not shown) [Example 27.5, 8-[5-(1-Hydroxy-1-methyl-ethyl)-pyridin-3-yl]-1-[6-(3-hydroxy-pyrrolidin-1-yl)-2-methyl-pyridin-3-yl]-3-methyl-1,3-dihydro-imidazo[4,5-c]quinolin-2-one]
< 4.57	CCNc1cc(-c2ccc3ncc4c(c3c2)n(-c2ccc(N3CCCC3)nc2C)c(=O)n4C)cnc1CO [Example 25.5, 8-(5-Ethylamino-6-hydroxymethyl-pyridin-3-yl)-3-methyl-1-(2-methyl-6-pyrrolidin-1-yl-pyridin-3-yl)-1,3-dihydro-imidazo[4,5-c]quinolin-2-one]
9.1	CNc1ncc(-c2ccc3ncc4c(c3c2)n(-c2ccc(N3CCC(OC)C3)nc2C)c(=O)n4C)cn1 (stereo not shown) [Example 28.2, 1-[6-(3-Methoxy-pyrrolidin-1-yl)-2-methyl-pyridin-3-yl]-3-methyl-8-(2-methylamino-pyrimidin-5-yl)-1,3-dihydro-imidazo[4,5-c]quinolin-2-one]
